Experimental findings from article PMC9096233, “Identification of an Au(I) N-Heterocyclic Carbene Compound as a Bactericidal Agent Against Pseudomonas aeruginosa” (Frontiers in Chemistry, 2022) are described below.

Values after ≈ are worked out from the molar mass of the structure shown. Like-named read-outs stand apart in the source and are kept apart here.

The test system of data set [1] is lung carcinoma A549 cell. Briefly: MTT cytotoxicity assay. It counts as cell-based, Human. The conditions noted are these: 48 h. The protocol: The cytotoxicity of gold compounds to mammalian cells was measured using the 3-(4, 5-dimethylthiazol-2-yl)-2, 5-diphenyltetrazolium bromide (MTT) assay. Human hepatocyte L-O2 cell, and lung carcinoma A549 cell were cultured in Corning 96 well microplates (10^4 cells per well) at 37°C for 18 h. Then the cells were incubated with gradient concentrations of gold compounds at 37°C for another 48 h. After the treatment, cell culture media were removed and the plates were wash with PBS for three times. And 90 μL fresh media and 10 μL 5 mg/ml MTT solution were added to each well and further incubated at 37°C for 4 h. Subsequently, the media were removed from the wells and 150 μL DMSO was added into each well to dissolve the formazan crystals. The absorbance at 490 nm of each well was measured with a micro-plate reader. The experiments were carried out in triplicates.

For data set [2], the system named is P. aeruginosa. Briefly: Bacterial membrane permeability, propidium iodide flow cytometry. The conditions noted are these: 30 min, PI staining. It counts as cell-based, Pseudomonas aeruginosa. The protocol:
Overnight P. aeruginosa culture was diluted 1:100 with fresh M9 medium and grown to early-mid exponential phase (OD600 = 0.4–0.6). […] Then the bacteria were incubated with propidium iodide (PI), a dye that is excluded from cells with impermeable membrane. The CytoFLEX flow cytometry (Beckman Coulter) was used to measure the bacterial fluorescent intensities and the data was analyzed using CytExpert 2.4 software. For the time-course detection of the bacterial permeability induced by Au1 or auranofin, P. aeruginosa in early-mid exponential phase (OD600 = 0.2) was incubated with PI dye on a 96-well plate. Au1 or auranofin was added to a final concentration of 50 μM. The fluorescence signal (561 nm excitation, 590 nm emission) and OD600 value were recorded on Cytation5 microplate reader. Each experiment was performed in triplicates.

The subject of data set [3] is P. aeruginosa. Briefly: Bacterial growth curves. Format: cell-based, Pseudomonas aeruginosa. The settings on record: 25 μM. The protocol: (§1) Pseudomonas aeruginosa strain PAO1 (P. aeruginosa) was grown in M9 minimal medium (1.0 g/L NH4Cl, 0.5 g/L NaCl, 6.0 g/L Na2HPO4, 3.0 g/L KH2PO4) supplemented with 1.0 mM MgSO4, 1.0 mM ZnSO4, 0.2 mM CaCl2, 0.4% (w/v) glucose and 0.2% (w/v) casein hydrolysate. Gram-negative Escherichia coli strain K-12 (E. coli) and Burkholderia cepacia J2315 (B. cepacia) were cultured in Luria-Bertani (LB) medium (5 g/L yeast extract, 10 g/L tryptone, 10 g/L sodium chloride). The Gram-positive Staphylococcus aureus strain Newman (S. aureus) was grown in Tryptic Soy Broth (TSB) medium (17 g/L Tryptone, 3 g/L Phytone, 5 g/L sodium chloride, 2.5 g/L dipotassium phosphate and glucose 2.5 g/L).

In data set [4] the test system is Burkholderia cepacia J2315. Briefly: MIC by standard broth dilution. It counts as cell-based. The conditions noted are these: Table S1. The protocol:
as §1
(§2) The minimal inhibitory concentration (MIC) values of the gallium compounds were determined using a standard broth dilution method as described previously ([Wiegand et al., 2008]). In brief, the compounds were two-fold serially diluted to concentrations from 400 to 1.56 μM. Approximately 50 μL of the compound solution was added to a 96-well microtiter plate and mixed with 50 μL of bacteria culture in log phase (10^6 CFU/ml). The bacterial culture was further incubated at 37°C for 22–24 h. The OD600 values for each well was recorded on a microplate reader. The MICs value was defined as the lowest compound concentration that inhibited 95% of the bacterial growth.

The test system of data set [5] is Staphylococcus aureus Newman. Briefly: MIC by standard broth dilution. The conditions noted are these: Table S1. It counts as cell-based. On the procedure:
as §1, §2

Data set [6] deals with Escherichia coli MG16552. Briefly: MIC by standard broth dilution. It counts as cell-based. The conditions noted are these: Table S1. On the procedure: as §1, §2
For data set [7], the system named is Pseudomonas aeruginosa strain PAO1. The data set is described as follows: MIC by standard broth dilution. Format: cell-based. The protocol:
as §1, §2

The subject of data set [8] is rhamnolipid. Briefly: Rhamnolipid measurement (anthrone). Format: cell-based, Pseudomonas aeruginosa. The conditions noted are these: 15 μM. The protocol: To quantify the secreted virulence factors, overnight P. aeruginosa PAO1 was diluted in fresh M9 medium and cultured to a final OD600 value of 0.15. Then Au1 or auranofin were added into culture with indicated concentrations. After 24 h incubation at 37°C, the bacterial supernatants were collected by centrifugation at 4,000 g for 10 min at 4°C and filtered using a 0.22 μm syringe filter (Millipore). The secreted virulence factors in the supernatant were quantified by the methods described below.
For rhamnolipid measurement, rhamnolipid was extracted from the supernatant with a mixture of chloroform and methanol (v:v = 2:1). The organic solvent phase was then evaporated to dryness and 100 μL methanol was added to dissolve the extracted rhamnolipid. Then 200 μL of pre-cooled anthrone solution (dissolving 2 g of anthrone in 1 L of concentrated H2SO4) was added into 20 μL extracted rhamnolipid sample and heat at 80°C for 30min. The rhamnolipid concentration was determined by measurement the absorbance at 630 nm.

Data set [9] has as its system P. aeruginosa PAO1. The data set is described as follows: Mouse skin wound infection model. It counts as in vivo. On the procedure:
Six-week-old female BALB/c mice were used for animal experiments to evaluate the healing effect of infected wounds in vivo. Briefly, mouse backs were cut to generate a circular wound (diameter 0.6 cm) with a hole punch and the wound was infiltrated using a medical cotton swab with P. aureginosa (overnight culture, OD600 = 0.3). The mice were randomly divided into three groups, including PBS, auranofin, and Au-1 groups (n = 5 in each group). The drugs were dissolved in DMSO and diluted with glycerol to a final concentration of 50 μM. After the bacterial fluid was dry, about 20 μL of the drug was added to the wound. Body weights and wound photography was recorded on days 0, 1, 3, 5, and 8. And on the 8th day, the mice were euthanized by chloral hydrate, the infectious tissues in all groups were collected and cultured into the LB plate for colony counting. The skin tissues were also fixed by paraformaldehyde solution (4%) for H&E, Gram, and Masson’s trichrome staining.
The above results promoted us to further investigate whether the Au1 compound was also efficacious in an in vivo animal infection model. To this end, we used a mouse wound infection model to assess the anti-P. aeruginosa efficacy of Au1 as described previously ([Liao et al., 2017b]). In brief, a circular wound with a diameter of 6 mm was created on the flank of mice, and approximately 5 × 10^8 CFU of P. aeruginosa PAO1 were dipped onto the wound by medical cotton swab to induce infection. Treatment is administered on the 1st day with auranofin or Au1 compound (50 μM, 20 μL) was applied to the wounds. The wound sizes and mice weights were recorded each day. On the 8th day, the infection sites were excised and part of the tissues was fixed in 4% paraformaldehyde and embedded in paraffin. Four-micrometer sections were cut, stained with Gram, H&E, and Masson’s trichrome stain. The remained tissues were homogenized and serially diluted for CFU quantification (Figure 6A).

For data set [10], the system named is P. aeruginosa. The data set is described as follows: Drug resistance development assay (serial passage). It counts as cell-based, Pseudomonas aeruginosa. The settings on record: over 14 days. On the procedure: Development of resistance to the Au1 compound and the antibiotics (ciprofloxacin and tobramycin) were assessed as described by [Habets and Brockhurst (2012)]. The MIC assay was performed on the first day as described above. […] Thereafter, a new passage MIC measurement assay was prepared using diluted bacterial cells grown at 0.5-fold MIC suspension. This was repeated for 14 passages and the MIC values for Au1, ciprofloxacin and tobramycin were recorded for each passage.

Where [11] appears, read: Pseudomonas aeruginosa PAO1, Table S1, read-out: MIC.

With `CC(=O)OC[C@H]1O[C@@H]([S-])[C@H](OC(C)=O)[C@@H](OC(C)=O)[C@@H]1OC(C)=O.CCP(CC)CC.[Au+]` [Au9, auranofin], the 50% inhibitory concentration (IC50) in [1] worked out at 2.8 ± 0.4 µM. In addition, the “bacterial fluorescence signal compared with the control group” value in data set [2] (50 μM) is “did not significantly affect”. Also, the “impact on the bacterial growth” value in [3] is reported as “little impact”. Further, the minimum inhibitory concentration (MIC) was >100 µM in data set [4]; <1.56 µM in data set [5]; >100 µM in [6]; “higher than 400 μM” in [7] (P. aeruginosa PAO1, lowest concentration inhibiting 95% of growth, 22–24 h, Table 1, listed as auranofin); >400 µM in data set [7] (P. aeruginosa PAO1, lowest concentration inhibiting 95% of growth, 22–24 h, Table 1, read-out: MIC); >100 µM in [7] (setting [11]). Besides, the synthesis of rhamnolipid result in data set [8] was “significantly suppress”. In data set [9] (50 μM, 20 μL on wound, 8 days), the “toxicity to the mice (mice weights)” value was “no significant toxicity”. In addition, in [9] (8th day), the “bacteria in wound tissue (Gram staining)” value is listed as “large number of bacteria”. Also, the “bacteria remained live in the infection sites” value in data set [9] (8th day, CFU) is “approximately 70%”.
As to `CC1(C)S[C@@H]2[C@H](NC(=O)C(C(=O)O)c3ccccc3)C(=O)N2[C@H]1C(=O)O` (some centres unmarked) [Carbenicillin], the minimum inhibitory concentration (MIC) in [4] was > 100 µM; in data set [5], 6.25 µM (≈ 2.37 µg/mL); in [6], 25 µM (≈ 9.46 µg/mL); in data set [7] (setting [11]), > 100 µM.
`O=C(O)c1cn(C2CC2)c2cc(N3CCNCC3)c(F)cc2c1=O` [Ciprofloxacin, ciprofloxacin]: the “increase of MIC values” in [10] is recorded as 30 times. The MIC was 25 µM (≈ 8.28 µg/mL) in data set [4], < 1.56 µM in data set [5], < 1.56 µM in data set [6] and < 1.56 µM in data set [7] (setting [11]).
As for `NC[C@H]1O[C@H](O[C@H]2[C@H](O)[C@@H](O[C@H]3O[C@H](CO)[C@@H](O)[C@H](N)[C@H]3O)[C@H](N)C[C@@H]2N)[C@H](N)C[C@@H]1O` [Tobramycin, tobramycin], in data set [10], the “increase of MIC values” was 30 times. The MIC in [4] was > 100 µM; in [5], 25 µM (≈ 11.7 µg/mL); in [6], 50 µM (≈ 23.4 µg/mL); in [7] (setting [11]), 12.5 µM (≈ 5.84 µg/mL).
Regarding polymyxin B, the “bacterial fluorescence signal compared with the control group” value in data set [2] (5 μM) is “remarkably increased”. In addition, the minimal inhibitory concentration (MIC) in data set [4] is reported as >100 µM; in data set [5], >100 µM; in data set [6], <1.56 µM; in data set [7] (setting [11]), <1.56 µM.
